pIC50: −log10 of the molar value. Where two headings read alike, the source gives them in different places.
Columns and labels:
Type in all cases: biochemical
CDK2/CCNE1 = CDK2/CCNE1 (Homo sapiens, UniProt P24941); experiment: CDK2 homogeneous time-resolved fluorescence (HTRF) kinase assay; conditions: CDK2/CCNE
Outline: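 3 nM CDK2/CCNE1 was preincubated with compound for 20 min at 23 °C in HEPES buffer (pH not stated), then reacted 60 min with 1 mM ATP and 50 nM ULight-4E-BP1 (Thr37/46) peptide. After EDTA stop, Eu-anti-phospho-4E-BP1 antibody (2 nM) was added for 60 min and TR-FRET read at 665 nm.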

CDK4/CCND3 = CDK4/CCND3 (Homo sapiens, UniProt P11802); experiment: CDK4 homogeneous time-resolved fluorescence (HTRF) kinase assay; conditions: CDK4/CCND
Outline: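 Inhibition of CDK4/CCND3 (1.5 nM) was measured at high ATP (1 mM) using 50 nM ULight-labelled 4E-BP1 Thr37/46 peptide; detection used 2 nM europium anti-phospho antibody after EDTA quench. IC50 values came from 11-point half-log titrations typically starting at 10 μM.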

CDK1/CCNB1 = CDK1/CCNB1 (Homo sapiens, UniProt P06493); experiment: CDK1 homogeneous time-resolved fluorescence (HTRF) kinase assay; conditions: CDK1/CCNB; x = IC50 >250 nM; read-out: CDK1/CCNB IC50 (>250 nM column)
Outline: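 High-ATP (1 mM) HTRF assay with 0.5 nM CDK1/cyclin B1 and 50 nM ULight-4E-BP1 (Thr37/46) substrate, 60 min at 23 °C after 20-min compound preincubation. IC50 values come from dose-response curves.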

CDK6/CCND1 = CDK6/CCND1 (Homo sapiens, UniProt Q00534); experiment: CDK6 homogeneous time-resolved fluorescence (HTRF) kinase assay; conditions: CDK6/CCND
Outline: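 1 nM enzyme, 1 mM ATP, 50 nM ULight-4E-BP1 (Thr37/46) peptide, 1% DMSO; 20 min compound preincubation, 60 min reaction, 23 °C. EDTA stop, 2 nM Eu-anti-phospho-4E-BP1 antibody 60 min. TR-FRET 665 nm (or 665/615 ratio); IC50 from 11-point half-log titration, top 10 μM.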

[1] = x = IC50 >250 nM, read-out: CDK2/CCNE IC50 (>250 nM column)
[2] = x = IC50 >250 nM, read-out: CDK4/CCND IC50 (>250 nM column)
[3] = x = IC50 >250 nM, read-out: CDK6/CCND IC50 (>250 nM column)
[4] = x = IC50 25-250 nM, read-out: CDK2/CCNE IC50 (25-250 nM)
[5] = x = IC50 <25 nM, read-out: CDK2/CCNE IC50 (<25 nM)
[6] = x = IC50 25-250 nM, read-out: CDK6/CCND IC50 (25-250 nM)
[7] = x = IC50 25-250 nM, read-out: CDK4/CCND IC50 (25-250 nM)

Chain of CDK1/CCNB1 (P06493 whole entry): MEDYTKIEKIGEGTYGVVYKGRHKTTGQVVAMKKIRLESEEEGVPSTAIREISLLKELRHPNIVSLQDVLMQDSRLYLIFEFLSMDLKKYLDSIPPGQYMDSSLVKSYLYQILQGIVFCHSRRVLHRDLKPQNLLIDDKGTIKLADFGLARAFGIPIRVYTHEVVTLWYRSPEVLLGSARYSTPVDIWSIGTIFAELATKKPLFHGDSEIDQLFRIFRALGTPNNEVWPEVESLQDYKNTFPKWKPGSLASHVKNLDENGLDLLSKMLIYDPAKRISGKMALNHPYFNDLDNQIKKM
Chain of CDK1/CCNB1 (P14635 whole entry partner): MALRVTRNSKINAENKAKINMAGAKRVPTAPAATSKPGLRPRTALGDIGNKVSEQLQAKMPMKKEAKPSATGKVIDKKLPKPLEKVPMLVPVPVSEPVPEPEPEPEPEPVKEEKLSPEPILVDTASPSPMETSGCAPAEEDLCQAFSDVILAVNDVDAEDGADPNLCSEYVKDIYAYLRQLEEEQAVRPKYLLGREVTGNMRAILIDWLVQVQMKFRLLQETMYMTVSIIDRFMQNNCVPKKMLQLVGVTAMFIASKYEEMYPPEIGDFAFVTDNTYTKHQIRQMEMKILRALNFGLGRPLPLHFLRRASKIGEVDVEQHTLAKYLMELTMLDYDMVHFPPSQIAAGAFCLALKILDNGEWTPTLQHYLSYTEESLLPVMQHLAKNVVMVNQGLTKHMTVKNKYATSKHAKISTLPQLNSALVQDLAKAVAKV
Chain of CDK4/CCND3 (P11802 whole entry): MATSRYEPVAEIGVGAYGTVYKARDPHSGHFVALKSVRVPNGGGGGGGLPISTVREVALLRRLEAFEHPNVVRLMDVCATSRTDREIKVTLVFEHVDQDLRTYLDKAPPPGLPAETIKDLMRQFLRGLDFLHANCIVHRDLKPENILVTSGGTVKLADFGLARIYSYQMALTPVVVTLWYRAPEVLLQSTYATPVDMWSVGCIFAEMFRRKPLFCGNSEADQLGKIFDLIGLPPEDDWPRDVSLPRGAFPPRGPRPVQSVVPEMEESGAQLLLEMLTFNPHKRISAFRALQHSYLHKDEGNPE
Chain of CDK4/CCND3 (P30281 whole entry partner): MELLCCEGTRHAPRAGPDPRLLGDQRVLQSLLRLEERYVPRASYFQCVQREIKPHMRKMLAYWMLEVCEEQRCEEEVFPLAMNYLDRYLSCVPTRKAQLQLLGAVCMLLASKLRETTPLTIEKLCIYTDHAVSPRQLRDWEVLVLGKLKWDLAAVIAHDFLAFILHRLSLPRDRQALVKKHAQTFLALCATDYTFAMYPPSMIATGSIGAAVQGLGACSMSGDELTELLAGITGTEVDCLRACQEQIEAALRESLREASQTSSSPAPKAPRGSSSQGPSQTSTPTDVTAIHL
Chain of CDK6/CCND1 (Q00534 whole entry): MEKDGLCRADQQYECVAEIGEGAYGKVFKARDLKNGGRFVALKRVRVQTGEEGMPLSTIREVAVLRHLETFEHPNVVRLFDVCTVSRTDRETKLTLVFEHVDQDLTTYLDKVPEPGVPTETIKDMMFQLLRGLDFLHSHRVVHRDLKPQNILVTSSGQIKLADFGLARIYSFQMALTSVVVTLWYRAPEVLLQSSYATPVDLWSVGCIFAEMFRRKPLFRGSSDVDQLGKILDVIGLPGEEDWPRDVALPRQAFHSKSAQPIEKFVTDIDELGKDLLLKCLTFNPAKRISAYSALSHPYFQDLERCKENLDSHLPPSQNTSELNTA
Chain of CDK6/CCND1 (P24385 whole entry partner): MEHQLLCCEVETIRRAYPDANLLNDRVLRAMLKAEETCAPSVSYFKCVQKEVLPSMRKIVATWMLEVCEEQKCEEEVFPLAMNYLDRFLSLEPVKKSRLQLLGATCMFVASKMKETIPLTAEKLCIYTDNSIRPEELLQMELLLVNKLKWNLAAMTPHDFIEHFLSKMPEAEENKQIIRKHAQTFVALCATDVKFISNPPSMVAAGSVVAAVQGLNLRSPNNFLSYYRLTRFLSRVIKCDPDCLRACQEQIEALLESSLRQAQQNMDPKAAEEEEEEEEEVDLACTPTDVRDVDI

SMILES | pIC50 (CDK2/CCNE1; [1]) | pIC50 (CDK4/CCND3; [2]) | pIC50 (CDK1/CCNB1) | pIC50 (CDK6/CCND1; [3]) | pIC50 (CDK2/CCNE1; [4]) | pIC50 (CDK2/CCNE1; [5]) | pIC50 (CDK6/CCND1; [6]) | pIC50 (CDK4/CCND3; [7])
COc1cnc(C#Cc2nccc3cnc(Nc4ccc(S(C)(=O)=O)cc4)cc23)nc1 [Example 513, 5-((5-methoxypyrimidin-2-yl)ethynyl)-N-(4-(methylsulfonyl)phenyl)-2,6-naphthyridin-3-amine] | < 6.60 | < 6.60 | < 6.60 | < 6.60 |  |  |  | 
CS(=O)(=O)c1ccc(Nc2cc3c(C#Cc4ccc5c(c4)OCC(=O)N5)nccc3cn2)cc1 [Example 519, 7-((7-((4-(methylsulfonyl)phenyl)amino)-2,6-naphthyridin-1-yl)ethynyl)-2H-benzo[b][1,4]oxazin-3(4H)-one] |  | < 6.60 | < 6.60 | < 6.60 | 6.60 to 7.60 |  |  | 
CS(=O)(=O)c1ccc(Nc2cc3c(C#Cc4ccc(C(F)F)nc4)nccc3cn2)cc1 [Example 524, 5-((6-(difluoromethyl)pyridin-3-yl)ethynyl)-N-(4-(methylsulfonyl)phenyl)-2,6-naphthyridin-3-amine] | < 6.60 | < 6.60 | < 6.60 | < 6.60 |  |  |  | 
CS(=O)(=O)c1ccc(Nc2cc3c(C#Cc4ccc(Cl)cn4)nccc3cn2)cc1 [Example 544, 5-((5-chloropyridin-2-yl)ethynyl)-N-(4-(methylsulfonyl)phenyl)-2,6-naphthyridin-3-amine] | < 6.60 | < 6.60 | < 6.60 | < 6.60 |  |  |  | 
CC(C)(O)c1cc2ccc(C#Cc3nccc4cnc(Nc5ccc(S(C)(=O)=O)cc5)cc34)cc2[nH]1 [Example 590, 2-(6-((7-((4-(methylsulfonyl)phenyl)amino)-2,6-naphthyridin-1-yl)ethynyl)-1H-indol-2-yl)propan-2-ol] |  | < 6.60 | < 6.60 | < 6.60 | 6.60 to 7.60 |  |  | 
Cc1c(-c2nccc3cnc(Nc4ccc(S(C)(=O)=O)cc4)cc23)ncc2[nH]ncc12 [Example 591, 5-(4-methyl-1H-pyrazolo[3,4-c]pyridin-5-yl)-N-(4-(methylsulfonyl)phenyl)-2,6-naphthyridin-3-amine] |  | < 6.60 | < 6.60 | < 6.60 | 6.60 to 7.60 |  |  | 
CC(Cn1ncc2c(C)c(-c3nccc4cnc(Nc5ccc(S(C)(=O)=O)cc5)cc34)ccc21)=NO [Example 592, 1-(4-methyl-5-(7-((4-(methylsulfonyl)phenyl)amino)-2,6-naphthyridin-1-yl)-1H-indazol-1-yl)propan-2-one oxime] |  | < 6.60 | < 6.60 | < 6.60 | 6.60 to 7.60 |  |  | 
CC(=O)Nc1cc(Nc2cc3c(-c4ccc5c(cnn5CCO)c4C)nccc3cn2)ccc1S(C)(=O)=O [Example 593, N-(5-((5-(1-(2-hydroxyethyl)-4-methyl-1H-indazol-5-yl)-2,6-naphthyridin-3-yl)amino)-2-(methylsulfonyl)phenyl)acetamide] |  | < 6.60 | < 6.60 | < 6.60 | 6.60 to 7.60 |  |  | 
COC(=O)c1cc2ccc(C#Cc3nccc4cnc(Nc5ccc(S(C)(=O)=O)cc5)cc34)cc2[nH]1 [Example 594, methyl 6-((7-((4-(methylsulfonyl)phenyl)amino)-2,6-naphthyridin-1-yl)ethynyl)-1H-indole-2-carboxylate] |  | < 6.60 | < 6.60 | < 6.60 | 6.60 to 7.60 |  |  | 
Cc1c(-c2nccc3cnc(Nc4ccc(S(C)(=O)=O)cc4)cc23)ccc2c1cnn2CC(O)(C(F)(F)F)C(F)(F)F [Example 595, 1,1,1,3,3,3-hexafluoro-2-((4-methyl-5-(7-((4-(methylsulfonyl)phenyl)amino)-2,6-naphthyridin-1-yl)-1H-indazol-1-yl)methyl)propan-2-ol] |  | < 6.60 | < 6.60 |  |  | > 7.60 | 6.60 to 7.60 | 
CS(=O)(=O)c1ccc(Nc2cc3c(C#CC4CCN(Cc5cn[nH]c5)CC4)nccc3cn2)cc1 [Example 603, 5-((1-((1H-pyrazol-4-yl)methyl)piperidin-4-yl)ethynyl)-N-(4-(methylsulfonyl)phenyl)-2,6-naphthyridin-3-amine] |  | < 6.60 | < 6.60 |  |  | > 7.60 | 6.60 to 7.60 | 
CC(C)(O)CN1CCc2cc(-c3nccc4cnc(Nc5ccc(S(C)(=O)=O)cc5)cc34)ccc2C1 [Example 629, 2-Methyl-1-(6-(7-((4-(methylsulfonyl)phenyl)amino)-2,6-naphthyridin-1-yl)-3,4-dihydroisoquinolin-2(1H)-yl)propan-2-ol] |  | < 6.60 | < 6.60 |  |  | > 7.60 | 6.60 to 7.60 | 
CC(=O)NCCn1cc2c(C)c(-c3nccc4cnc(Nc5ccc(S(C)(=O)=O)cc5)cc34)ccc2n1 [Example 630, N-(2-(4-methyl-5-(7-((4-(methylsulfonyl)phenyl)amino)-2,6-naphthyridin-1-yl)-2H-indazol-2-yl)ethyl)acetamide] |  |  | < 6.60 |  |  | > 7.60 | 6.60 to 7.60 | 6.60 to 7.60
C=Cc1c(-c2nccc3cnc(Nc4ccc(S(C)(=O)=O)cc4)cc23)ccc2[nH]ncc12 [Example 641, N-(4-(methylsulfonyl)phenyl)-5-(4-vinyl-1H-indazol-5-yl)-2,6-naphthyridin-3-amine] |  | < 6.60 | < 6.60 | < 6.60 | 6.60 to 7.60 |  |  | 
Cc1c(-c2nccc3cnc(Nc4ccc(S(C)(=O)=O)cc4)cc23)ccc2c1cnn2CC(=O)NC1CCCCC1 [Example 642, N-cyclohexyl-2-(4-methyl-5-(7-((4-(methylsulfonyl)phenyl)amino)-2,6-naphthyridin-1-yl)-1H-indazol-1-yl)acetamide] |  | < 6.60 | < 6.60 | < 6.60 | 6.60 to 7.60 |  |  | 
Cc1c(-c2nccc3cnc(Nc4ccc(S(C)(=O)=O)cc4)cc23)ccc2c1cnn2C(N)=O [Example 659, 4-methyl-5-(7-((4-(methylsulfonyl)phenyl)amino)-2,6-naphthyridin-1-yl)-1H-indazole-1-carboxamide] |  |  | < 6.60 |  |  | > 7.60 | 6.60 to 7.60 | 6.60 to 7.60
N#Cc1ccc(C#Cc2nccc3cnc(Nc4ccc(S(=O)(=O)CCN5CCOCC5)cc4)cc23)cc1 [Example 661, 4-((7-((4-((2-morpholinoethyl)sulfonyl)phenyl)amino)-2,6-naphthyridin-1-yl)ethynyl)benzonitrile] |  | < 6.60 | < 6.60 | < 6.60 | 6.60 to 7.60 |  |  | 
Cn1cc(C#Cc2nccc3cnc(Nc4ccc(S(C)(=O)=O)cc4)cc23)ccc1=O [Example 663, 1-Methyl-5-((7-((4-(methylsulfonyl)phenyl)amino)-2,6-naphthyridin-1-yl)ethynyl)pyridin-2(1H)-one] |  | < 6.60 | < 6.60 | < 6.60 | 6.60 to 7.60 |  |  | 
CS(=O)(=O)c1ccc(Nc2cc3c(C#Cc4ccc(CN5CCOCC5)cc4)nccc3cn2)cc1 [Example 666, N-(4-(methylsulfonyl)phenyl)-5-((4-(morpholinomethyl)phenyl)ethynyl)-2,6-naphthyridin-3-amine] |  | < 6.60 | < 6.60 | < 6.60 |  | > 7.60 |  | 
Cc1c(-c2nccc3cnc(Nc4ccc(S(C)(=O)=O)cc4)cc23)ccc2c1cnn2C(=O)NC(C)(C)C [Example 668, N-(tert-butyl)-4-methyl-5-(7-((4-(methylsulfonyl)phenyl)amino)-2,6-naphthyridin-1-yl)-1H-indazole-1-carboxamide] |  | < 6.60 | < 6.60 | < 6.60 | 6.60 to 7.60 |  |  | 
C/C=C/S(=O)(=O)c1ccc(Nc2cc3c(N4CCC(C#N)CC4)nccc3cn2)cc1 [Example 670, (E)-1-(7-((4-(prop-1-en-1-ylsulfonyl)phenyl)amino)-2,6-naphthyridin-1-yl)piperidine-4-carbonitrile] |  | < 6.60 | < 6.60 | < 6.60 | 6.60 to 7.60 |  |  | 
CC(=O)NS(=O)(=O)c1ccc(Nc2cc3c(-c4ccc5c(cnn5CC(O)(C(F)(F)F)C(F)(F)F)c4C)nccc3cn2)cc1 [Example 678, N-((4-((5-(4-methyl-1-(3,3,3-trifluoro-2-hydroxy-2-(trifluoromethyl)propyl)-1H-indazol-5-yl)-2,6-naphthyridin-3-yl)amino)phenyl)sulfonyl)acetamide] |  | < 6.60 | < 6.60 | < 6.60 | 6.60 to 7.60 |  |  | 

Source: patent US20260325533A1, “CDK INHIBITOR COMPOUNDS” (ALEKSIA THERAPEUTICS, INC., priority 2023, published 2026)
